Test results: US20170050957A1, “4-AMINO-6-(HETEROCYCLIC)PICOLINATES AND 6-AMINO-2-(HETEROCYCLIC)PYRIMIDINE-4-CARBOXYLATES AND THEIR USE AS HERBICIDES” (Dow AgroSciences LLC, priority 2013, published 2017)
Like-named read-outs stand apart in the source and are kept apart here.

How the values were obtained:
Type in all cases: in vivo
[1] = system: Key Broadleaf Weed and Crop Species; experiment: Post-emergent Test II herbicidal activity (Table 15); settings: post-emergence, 336 h, 140 g ai/ha, 14 d
Summary of the method: (§1)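 Post-emergence spray; seedlings 7-21 d old, 1st-2nd true leaf; 187 L/ha; serial rates 1×-1/16×; solvent blank controls; subirrigated; visual % injury at 14 d.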

[2] = system: Key Grass and Sedge Weeds as well as Grass Crops; experiment: Post-emergent Test II herbicidal activity (Table 16); settings: post-emergence, 336 h, 14 d; for pest or weed control at 35 g/ha: 35 g ai/ha; for pest or weed control at 70 g/ha: 70 g ai/ha; for pest or weed control at 140 g/ha: 140 g ai/ha
Summary of the method: as §1

[3] = system: sunflower (Helianthus annuus); experiment: Post-emergent Test I herbicidal activity; settings: 4 Kg ai/ha
Protocol: (§2) Post-emergent Test I Seeds test species were obtained from commercial suppliers and planted into a 5″-round pot containing soil-less media mix (metro-mix 360®, Sun Gro Horticulture). Postemergence treatments were planted 8-12 days prior to application and cultured in a greenhouse equipped with supplemental light sources to provide a 16 h photoperiod at 24-29° C. All pots were surface irrigated. Approximately 10 milligrams (mg) of each compound were dissolved in 1.3 mL acetone-DMSO (97:3, v/v) and diluted with 4.1 mL water-isopropanol-crop oil concentrate (78:20:2, v/v/v) containing 0.02% Triton X-155. Treatments were serial diluted with the above formulation solvent to provide 1.85, 0.926, 0.462 and 0.231 mg/mL of test compound delivered in 2.7 mL/pot (roughly equivalent to 4.0, 2.0, 1.0, and 0.5 kg/ha, respectively). Formulated compounds were applied using a DeVilbiss® compressed air sprayer at 2-4 psi. Following treatment, pots were returned to the greenhouse for the duration of the experiment. All pots were sub-irrigated as need to provide optimum growing conditions. All pots were fertilized one time per week by subirrigating with Peters Peat-Lite Special® fertilizer (20-10-20). Phytotoxicity ratings were obtained 10 days after treatment postemergence applications. All evaluations were made visually on a scale of 0 to 100 where 0 represents no activity and 100 represents complete plant death. Visual assessments of plant injury were made based on growth reduction, discoloration, leaf deformity and necrosis

wild oats (Avena fatua) = experiment: Post-emergent Test I herbicidal activity; settings: 4 Kg ai/ha
Protocol: as §2

[4] = system: barnyardgrass (Echinochloa crus-galli); experiment: Post-emergent Test I herbicidal activity; settings: 4 Kg ai/ha
Protocol: as §2

[5] = system: giant foxtail (Setaria faberi); experiment: Post-emergent Test I herbicidal activity; settings: 4 Kg ai/ha
Protocol: as §2

[6] = Cyperus esculentus, yellow nutsedge (Cyperus esculentus), read-out: Visual Growth Reduction (%) 14 Days After Application, CYPES
[7] = Echinochloa crus-galli, barnyardgrass (Echinochloa crus-galli), read-out: Visual Growth Reduction (%) 14 Days After Application, ECHCG
[8] = Oryza sativa, rice (Oryza sativa), read-out: Visual Growth Reduction (%) 14 Days After Application, ORYSA
[9] = Setaria faberi, giant foxtail (Setaria faberi), read-out: Visual Growth Reduction (%) 14 Days After Application, SETFA
[10] = Triticum aestivum, wheat, spring (Triticum aestivum), read-out: Visual Growth Reduction (%) 14 Days After Application, TRZAS
[11] = Zea mays, maize, corn (Zea mays), read-out: Visual Growth Reduction (%) 14 Days After Application, ZEAMX

Nc1c(F)c(-c2cccc3cc[nH]c23)nc(C(=O)O)c1Cl [Compound 1.48]
G (0-29): Visual Growth Reduction (%) 10 Days After Application AVEFA (wild oats (Avena fatua)) | Visual Growth Reduction (%) 10 Days After Application ECHCG [4] | Visual Growth Reduction (%) 10 Days After Application SETFA [5]
60 to 74%: pest or weed control at 140 g/ha ([1]; Chenopodium album, lambsquarters (Chenopodium album), read-out: Visual Growth Reduction (%) 14 Days After Application, CHEAL)
0 to 29%: pest or weed control at 140 g/ha ([1]; Abutilon theophrasti, velvetleaf (Abutilon theophrasti), read-out: Visual Growth Reduction (%) 14 Days After Application, ABUTH) | pest or weed control at 140 g/ha ([1]; Amaranthus retroflexus, redroot pigweed (Amaranthus retroflexus), read-out: Visual Growth Reduction (%) 14 Days After Application, AMARE) | pest or weed control at 140 g/ha ([1]; Brassica napus, oilseed rape, canola (Brassica napus), read-out: Visual Growth Reduction (%) 14 Days After Application, BRSNN) | pest or weed control at 140 g/ha ([1]; Euphorbia heterophylla, wild poinsettia (Euphorbia heterophylla), read-out: Visual Growth Reduction (%) 14 Days After Application, EPHHL) | pest or weed control at 35 g/ha [2, 6] | pest or weed control at 70 g/ha [2, 6] | pest or weed control at 140 g/ha [2, 6] | pest or weed control at 35 g/ha [2, 7] | pest or weed control at 70 g/ha [2, 7] | pest or weed control at 140 g/ha [2, 7] | pest or weed control at 35 g/ha [2, 8] | pest or weed control at 70 g/ha [2, 8] | pest or weed control at 140 g/ha [2, 8] | pest or weed control at 35 g/ha [2, 9] | pest or weed control at 70 g/ha [2, 9] | pest or weed control at 140 g/ha [2, 9] | pest or weed control at 35 g/ha [2, 10] | pest or weed control at 70 g/ha [2, 10] | pest or weed control at 140 g/ha [2, 10] | pest or weed control at 35 g/ha [2, 11] | pest or weed control at 70 g/ha [2, 11] | pest or weed control at 140 g/ha [2, 11]
C (75-84): Visual Growth Reduction (%) 10 Days After Application HELAN [3]
75 to 84%: pest or weed control at 140 g/ha ([1]; Helianthus annuus, sunflower (Helianthus annuus), read-out: Visual Growth Reduction (%) 14 Days After Application, HELAN)
